Laboratory results published in paper PMC13316043, “Structural basis of NSD2 degradation via targeted recruitment of SCF-FBXO22” (Nature Communications, 2026).

What was measured:
[1] = test system: FBXO22-NSD2 PWWP1 ternary complex; assay: Size-exclusion chromatography to monitor ternary complex formation; format: binding, human
Method: Formation of the SCF^FBXO22-UNC10088-NSD2 PWWP1 and SCF^FBXO22-UNC10415667-NSD2 PWWP1 ternary complexes was performed by incubating SKP1-FBXO22, CUL1-RBX1, NSD2 PWWP1, and UNC10088 or UNC10415667 at a 1:1:1:1 molar ratio for 4 h on ice. The SCF^FBXO22-UNC10088-NSD2 PWWP1-BACH1 BTB ternary complex was formed by incubating SKP1-FBXO22, CUL1-RBX1, NSD2 PWWP1, UNC10088, and BACH1 BTB at a 1:1:1:1:1.5 molar ratio for 1 h on ice. The incubated sample was loaded onto a Superdex 200 Increase SD200 column (Cytiva), equilibrated with 20 mM HEPES pH 8, 200 mM NaCl, 1 mM DTT, for size-exclusion chromatography, and fractions containing all subunits of the SCF^FBXO22-Degrader-NSD2 PWWP1 complex were pooled and concentrated. The SCF^FBXO22-UNC10088-NSD2 PWWP1, SCF^FBXO22-UNC10415667-NSD2 PWWP1, and SCF^FBXO22-UNC10088-NSD2 PWWP1-BACH1 BTB complexes were concentrated to 33 µM, 10.9 µM, and 4.1 µM, respectively, and flash frozen. […] In contrast, only the PWWP1 and BTB domains of NSD2 and BACH1, respectively, were used.
FBXO22 WT and variants were incubated on ice with NSD2 PWWP1 and either UNC10088 or UNC10415667 at 5 µM. After 1 h, the samples were centrifuged at 16,060 x g for 10 min at 4 °C. Each sample was examined for C326- and compound-dependent complex formation by comparing the SEC chromatograms and Coomassie-stained SDS-PAGE gels. […] These experiments were performed using a Superdex 200 Increase SD200 column (Cytiva) and 20 mM HEPES pH 8, 200 mM NaCl, 1 mM DTT.

[2] = test system: BACH1; assay: Western blot of BACH1 in HEK293T cells; format: cell-based, human; settings: for BACH1 levels by immunoblot: 10 µM, 6 hrs
Method: HEK293T and U2OS were obtained from ATCC and cultured in high-glucose-containing Dulbecco’s Modified Eagle’s Medium (DMEM; Gibco; cat. #11995) supplemented with 10% fetal bovine serum (VWR) and 1% penicillin/streptomycin (Gibco). Cells were treated with either UNC10415667, UNC12149, UNC12567, hemin (Sigma; cat. #H9039), or DMSO control for the indicated times and analyzed by western blot using standard procedures. Briefly, cells were lysed on ice for 15 min in NETN lysis buffer (20 mM Tris pH 8.0, 100 mM NaCl, 0.5 mM EDTA, 0.5% NP40) supplemented with 10 µg/mL aprotinin, 10 µg/mL leupeptin, 10 µg/mL pepstatin A, 1 mM sodium orthovanadate, 1 mM sodium fluoride, and 1 mM AEBSF (4-[two aminoethyl] benzenesulfonyl fluoride). Cell lysates were centrifuged at 20,000×g in a benchtop microcentrifuge at 4 °C for 10 min. Protein concentration was determined by Bradford assay (Bio-Rad; cat. #5000006). Protein concentration was normalized using Laemmli buffer. Samples were heated for 5 min at 95°C in a dry water-bath. Samples were separated on TGX stain free gels (Bio-Rad) transferred to nitrocellulose membrane and blocked in 5% non-fat dry milk (Biorad; cat. #1706404) diluted in 1x TBS-T (137 mM NaCl, 2.7 mM KCl, 25 mM Tris pH 7.6, 1% Tween-20). Primary antibody incubations (Anti-NSD2 (Abcam; Cat# ab75359; Lot# 1093214-1; 1:1000 dilution), Anti-BACH1 (Fortis Life Sciences; Cat# A303-805A; Lot# 1; 1:1000 dilution), and Anti-GAPDH (Santa Cruz Biotechnology; Cat# sc-47724; Lot# C1023; 1:1000 dilution)) were performed overnight at 4 °C. Secondary antibodies (Peroxidase AffiniPure Goat Anti-Rabbit IgG (H + L) (Jackson Immuno; Cat# 111-035-003; 1:5000 dilution) and Peroxidase AffiniPure Goat Anti-Mouse IgG (H + L) (Jackson Immuno; Cat# 115-035-003; 1:5000 dilution)) were incubated for 1 h at room temperature. Blots were developed by chemiluminescence using Pierce ECL (Thermo Fisher Scientific; cat. #32106).

[3] = molecular target: T1, *NSD2 PWWP1 ubiquitination by SCF^FBXO22 (Homo sapiens, UniProt O96028+Q8NEZ5); assay: Ubiquitination assay using purified components; format: biochemical; settings: for SCF^FBXO22-dependent ubiquitination of *NSD2 PWWP1: compound at 0.5 µM, fluorescent SDS-PAGE; for hook effect upon titration in ubiquitination assay: compound titration
T1 construct: fluorescently labeled NSD2-PWWP1 (*NSD2-PWWP1); the FIST domain of FBXO22 rather than full-length FBXO22 that is used in the ubiquitination; 6xHis (N, cleaved yes); GST (cleaved yes); made in house; host or cells: SKP1-FBXO22: Trichoplusia ni insect cells; NSD2 PWWP1 and NEDD8: E. coli BL21(DE3)-CodonPlus RIL
Method: Ubiquitination assays were performed by mixing 2 separate solutions. First, SKP1-FBXO22, fluorescently labeled NSD2-PWWP1 (*NSD2-PWWP1), and compounds, unless otherwise indicated, were pre-incubated for 15 min on ice. Second, UBA1, UBE2R2, UBE2D2 or UBE2L3 and ARIH1, NEDD8 ~ CUL1-RBX1, MgATP, and reaction buffer (20 mM HEPES pH 8, 200 mM NaCl, 0.5 mg/mL bovine serum albumin (BSA)) were combined on ice to generate a master mix. A standard volume of master mix was added to each reaction tube, and Ub was added to initiate the ubiquitination reaction containing 100µM Ub, 1µM SKP1-FBXO22, 0.5µM *NSD2 PWWP1, 0.5µM compound, 0.1µM UBA1, 1µM UBE2R2, 1µM UBE2D2 or 1µM UBE2L3, and 1µM ARIH1, 1µM NEDD8~CUL1-RBX1, and 5mM MgATP in reaction buffer. Ubiquitination assays comparing *NSD2 PWWP1 mutants were performed similarly, except that SKP1-FBXO22, *NSD2 PWWP1 mutants, and compounds were not incubated separately prior to the start of the reaction. The reactions proceeded at room temperature for 15 min until they were quenched by adding SDS Loading Buffer. The ubiquitinated *NSD2 PWWP1 was visualized by subjecting the reactions to SDS-PAGE and imaging using the Amersham Typhoon.

T1 sequence (O96028 222-286 limits assumed): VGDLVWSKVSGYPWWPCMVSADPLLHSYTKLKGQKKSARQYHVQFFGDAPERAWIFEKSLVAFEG
T1 sequence (Q8NEZ5 whole entry, the tested form may be a part): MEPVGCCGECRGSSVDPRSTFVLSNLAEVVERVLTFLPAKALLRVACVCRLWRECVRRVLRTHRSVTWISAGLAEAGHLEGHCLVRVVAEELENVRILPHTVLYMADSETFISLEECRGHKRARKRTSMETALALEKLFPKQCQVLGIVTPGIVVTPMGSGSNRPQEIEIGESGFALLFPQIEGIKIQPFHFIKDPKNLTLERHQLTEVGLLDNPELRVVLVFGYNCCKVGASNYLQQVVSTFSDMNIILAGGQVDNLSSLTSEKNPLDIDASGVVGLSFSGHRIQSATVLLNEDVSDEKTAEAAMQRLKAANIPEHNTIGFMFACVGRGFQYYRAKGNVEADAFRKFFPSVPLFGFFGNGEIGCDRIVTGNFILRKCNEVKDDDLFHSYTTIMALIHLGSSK

| Structure (SMILES) | ternary complex formation between FBXO22 and NSD2 PWWP1 by SEC [1] | BACH1 levels by immunoblot [2] | SCF^FBXO22-dependent ubiquitination of *NSD2 PWWP1 [3] | hook effect upon titration in ubiquitination assay [3] | BACH1 and NSD2 levels upon co-treatment with Hemin ([2]; 10 µM UNC10415667 and 20 µM Hemin, 6 h) |
| --- | --- | --- | --- | --- | --- |
| O=C1COc2cc(C(=O)N(Cc3ccc(C(=O)Nc4ccc5c(c4)CCN(C(=O)CCCCC(O)S(=O)(=O)O)C5)cc3)C3CC3)ccc2N1 (stereo not shown) [UNC10088] | co-migrated together | remained constant | promotes ubiquitination | observed hook effect |  |
| Cc1cc(C=O)ccc1C(=O)N1CCc2cc(NC(=O)c3ccc(CN(C(=O)c4ccc5c(c4)OCC(=O)N5)C4CC4)cc3)ccc2C1 [UNC12149] |  |  | significant in vitro NSD2 ubiquitination |  |  |
| O=Cc1ccc(C(=O)N2CCc3cc(NC(=O)c4ccc(CN(C(=O)c5ccc6c(c5)OCC(=O)N6)C5CC5)cc4)ccc3C2)cc1 [UNC10415667] | stable complex | unchanged | to the same extent as UNC10088 | characteristic hook effect | both BACH1 and NSD2 were degraded |
